Test results as given in patent US20040057976A1, “Insect bait” (priority 2002, published 2004).
Values joined by “and” are separate entries in the source; they are usually repeats but may differ in a detail not shown here. Identical values can stand only once. Like-named read-outs stand apart in the source and are kept apart here.

Legend:
T. Albipes adults [1] = assay: Laboratory efficacy test, second trial (non-forced bioassay, 15 treatments); type: in vivo, Technomyrmex albipes; details: means of 5 replicates
Description: When ant populations appeared stable, treatments were applied. No ants were added during the experiment.
Surface treatments included 1,200 ppm fipronil (Termidor®& SC), 500 ppm indoxacarb (DuPont, Wilmington, Del.), 500 ppm deltamethrin (DeltaDust®, Aventis Environmental Science), and 600 ppm lambda cyhalothrin (Demand®V CS, Syngenta Crop Protection).
Both vials had felt pads under them. Boxes with gels had the gels in weighing boats.
Mortality for the second trial was recorded for 47 days.

T. Albipes adults [2] = details: first trial, non-forced bioassay, means of 5 replicates
Excerpt: White-footed ants were collected from a stand of Phoenix roebelenii palms at the University of Florida Fort Lauderdale Research and Education Center (Broward Co., FL). Adult ants and brood were collected from nesting sites in palm thatch between 9 a.m. and 3 p.m., when most of the foragers are in the nests. The thatch was placed in a plastic 100-liter garbage pail through a 28-cm hole cut into the center of its lid. The upper portions of the interior sides of the pail were coated with a petroleum jelly (Vaseline® London, UK) to retard the ants' escape.
Infested thatch material was taken from the garbage pail, placed in the container, covered with 1×15-cm strips of wood and a separator sheet of 3-mm polycarbonate with 2-mm holes. Dripping water from a 2-1 tank suspended over the container forced the ants to leave the thatch and enter nesting tubes (10×75 mm clear polystyrene test tubes) (Fisher Scientific, Pittsburgh, Pa.), filled at the bottom with a small cotton ball soaked with sugar water, and completely covered with aluminum foil.
Nalgene™ reusable plastic utility boxes with lids ([…]) (Fisher Scientific, Pittsburgh, Pa.) were used to hold white-footed ant colonies for laboratory tests (FIG. 4). Nesting tubes with about 200 ants and dozens of brood were placed into each box, held in place with a small amount of Handi-Tak®. Ants were provisioned with water by placing a small cotton ball moistened with approximately 2-ml deionized water in a 41×41×8 mm plastic weighing boat.
Five holes (0.86 mm ID) were drilled into the caps. Vials were filled with 4.5 ml bait solution, inverted, and attached to the sides of the boxes with Handi-Tak® (FIG. 3). Sugar water was fed ad libitum to the ants at all times and supplemented twice weekly by live termites or canned chicken for protein. A felt pad was placed under each vial to catch errant drops and prevent ants from being entrapped in their sticky residue. Ants were allowed to acclimatize in boxes for several weeks. Each day dead ants were removed and replaced with live ants. When ant populations appeared stable, treatments were applied. No ants were added during the experiment.
Fourteen treatments (5 replicates each, assigned randomly) were applied to the ants in boxes. […] The suspension of XR-007 was placed into a plastic weighing boat (0.5 g), and replaced twice a week or when it desiccated. One corner was cut away to allow for easier access by the ants.
Both vials had felt pads under them. Boxes with gels had the gels in weighing boats. The boats were on the left side of the box, and the untreated sugar water vials were on the right side. […] This was accomplished by adding 0.17-ml to panels and distributing the solution evenly with a fine paintbrush previously saturated in solution. One-half g XR-007 and indoxacarb in honey were placed into the bulb of 9.3-ml large-tip opening transfer pipettes (having had 8-cm cut back from the tip, Samco®b, San Fernando, Calif.).
Dead ants were removed and counted daily for the first week, then twice weekly thereafter. At the end of the experiment, all ants still living were killed with ethanol and counted to determine the total number of ants in each box. […] Mean percent mortalities were analyzed by ANOVA (analysis of variance) and general linear model (SAS Institute, 1989 SAS/STAT user's guide, version 6, 4th ed. SAS Institute, Cary, N.C.) and means separated using Student-Newman-Keals test at P<0.05.
Mortality for the first trial was recorded for 51 days.

white-footed ants = assay: Two-choice, random-order preference tests on exterior walls; type: in vivo, Technomyrmex albipes
Description: Two commercial ready-to-use (RTU) ant baits and several sugar solutions were tested with and without active ingredients, including 10,000 ppm DOT (Uncle Albert's Super Smart Ant Bait®, A Safe Pest Eliminators, Inc., Miami, Fla.) and 10,000 ppm orthoboric acid (Drax Liquidator®, Waterbury Companies, Inc., Waterbury, Conn.). Sugar water solutions tested included: 100,000 ppm, 150,000 ppm, 200,000 ppm, 250,000 ppm, 350,000 ppm, 400,000 ppm, and 500,000 ppm sucrose (Publix Supermarkets, […] and 500,000 ppm fructose (Fisher Scientific, Pittsburgh, Pa.), 250,000 ppm maltose (Fisher Scientific). Four insect bait formulations of the invention (ND 1, ND2, ND3, ND4, see Table II) were also tested against sugars and commercial baits. […] Borax, Los Angeles, Calif.). Glass shell vials (6-ml capacity) with […] plastic caps (Fisher Scientific) were used for bait containers. Vials were modified for use as bait containers by drilling holes (6 mm) in the caps, inserting cotton dental wicks, which minimize bait desiccation and entrapment by ants, adding 4.5-ml solution, and using […]® (Pacer Technology, Rancho Cucamonga, Calif.) adhesive putty to hold the vials on the walls. Each test consisted of 5 bait vial pairs placed in 2 columns (FIG. 1). […] Nine counts of ants on each wick were taken approximately every 30 minutes over 4.5 hours. When the numbers of ants could not be counted visually, digital photographs were taken, and counts were taken from a computer display. Data were analyzed using t-Test and Mann-Whitney Rank Sum Tests at P=0.05.

[3] = test 18: 25% Sucrose vs. 25% Maltose, P=0.852
[4] = test 19: 25% Sucrose vs. 25% Glucose, P=0.463
[5] = test 17: 50% Fructose vs. 50% Glucose, P=0.817

Q: Which “Mean % mortality (+/SD) of T. albipes adults” value (“Mean % mortality (+/SD)” for short) (T. Albipes adults [1]; 1 day exposure) does the source give for `COC(=O)N(C(=O)N1CO[C@@]2(C(=O)OC)Cc3cc(Cl)ccc3C2=N1)c1ccc(OC(F)(F)F)cc1` [DPX surface, indoxacarb] here?
A: Its value is 2.19 ± 2.42bcd %.

Q: And the “Mean % mortality (+/SD)” value (T. Albipes adults [1]; 2 days exposure)?
A: Its value is 2.56 ± 2.51c %.

Q: And the “Mean % mortality (+/SD)” value (T. Albipes adults [1]; 8 days exposure)?
A: Its value is 5.61 ± 4.96c %.

Q: What about the “Mean % mortality (+/SD)” value (T. Albipes adults [1]; 29 days exposure) of the same molecule?
A: The value was 16.59 ± 12.72de %.

Q: What about the “Mean % mortality (+/SD)” value (T. Albipes adults [1]; 47 days exposure) of the same molecule?
A: Its value is 27.87 ± 14.59e %.

Q: Which “Mean percent Mortality (+/SD) of T. Albipes adults” value (from here on “Mean percent Mortality (+/SD)”) (T. Albipes adults [2]; 1 day exposure) does the source give for spinosad here?
A: The value was 1.01 ± 0.87b %.

Q: What about the “Mean percent Mortality (+/SD)” value (T. Albipes adults [2]; 3 days exposure) of the same molecule?
A: The value was 2.02 ± 0.83d %.

Q: And the “Mean percent Mortality (+/SD)” value (T. Albipes adults [2]; 7 days exposure)?
A: The value was 3.78 ± 1.85e %.

Q: What about the “Mean percent Mortality (+/SD)” value (T. Albipes adults [2]; 30 days exposure) of the same molecule?
A: The value was 16.15 ± 3.78c %.

Q: And the “Mean percent Mortality (+/SD)” value (T. Albipes adults [2]; 51 days exposure)?
A: Its value is 34.51 ± 2.42cd %.

Q: With `N#Cc1nn(-c2c(Cl)cc(C(F)(F)F)cc2Cl)c(N)c1[S+]([O-])C(F)(F)F` (stereo not drawn) [Fipronil, fipronil] as the molecule, how does the “Mean percent Mortality (+/SD)” value (T. Albipes adults [2]; 1 day exposure) read?
A: The value was 0.98 ± 0.70b %.

Q: And the “Mean percent Mortality (+/SD)” value (T. Albipes adults [2]; 3 days exposure)?
A: Its value is 3.46 ± 1.38cd %.

Q: What about the “Mean percent Mortality (+/SD)” value (T. Albipes adults [2]; 7 days exposure) of the same molecule?
A: Its value is 6.76 ± 2.25e %.

Q: What about the “Mean percent Mortality (+/SD)” value (T. Albipes adults [2]; 30 days exposure) of the same molecule?
A: Its value is 27.88 ± 5.89bc %.

Q: And the “Mean percent Mortality (+/SD)” value (T. Albipes adults [2]; 51 days exposure)?
A: The value was 53.76 ± 10.84b %.

Q: Which results are given for `CN1COCN(Cc2cnc(Cl)s2)/C1=N\[N+](=O)[O-]` [Thiamethoxam 10 ppm, Thiamethoxam]?
A: Mean percent Mortality (+/SD) of T. Albipes adults (T. Albipes adults [2]; 1 day exposure): 4% and 4.44 ± 2.26ab %; Mean percent Mortality (+/SD) of T. Albipes adults (T. Albipes adults [2]; 1 day exposure, listed as Thiamethoxam 1 ppm): 1.66 ± 1.17b %; Mean percent Mortality (+/SD) of T. Albipes adults (T. Albipes adults [2]; 3 days exposure): 18.33 ± 8.49b %; Mean percent Mortality (+/SD) of T. Albipes adults (T. Albipes adults [2]; 3 days exposure, listed as Thiamethoxam 1 ppm): 3.64 ± 2.80cd %; Mean percent Mortality (+/SD) of T. Albipes adults (T. Albipes adults [2]; 7 days exposure): 39% and 38.81 ± 11.13b %; Mean percent Mortality (+/SD) of T. Albipes adults (T. Albipes adults [2]; 7 days exposure, listed as Thiamethoxam 1 ppm): 6.44 ± 4.73e %; Mean percent Mortality (+/SD) of T. Albipes adults (T. Albipes adults [2]; 30 days exposure): 65% and 64.77 ± 15.51a %; Mean percent Mortality (+/SD) of T. Albipes adults (T. Albipes adults [2]; 30 days exposure, listed as Thiamethoxam 1 ppm): 19.73 ± 9.98c %; Mean percent Mortality (+/SD) of T. Albipes adults (T. Albipes adults [2]; 51 days exposure): 84% and 84.40 ± 10.09a %; Mean percent Mortality (+/SD) of T. Albipes adults (T. Albipes adults [2]; 51 days exposure, listed as Thiamethoxam 1 ppm): 44.02 ± 13.73bcd %

Q: What does the source list for `OC[C@H]1O[C@@](CO)(O[C@H]2O[C@H](CO)[C@@H](O)[C@H](O)[C@H]2O)[C@@H](O)[C@@H]1O` [sucrose]?
A: preference in binary choice test (counts of ants on wicks) (white-footed ants; test 1: 10% Sucrose vs. water, P<0.001): highly preferred; preference in binary choice test (counts of ants on wicks) (white-footed ants; test 3: 25% Sucrose vs. 10% Sucrose, P<0.05): preferred; preference in binary choice test (counts of ants on wicks) (white-footed ants; test 4: 25% Sucrose vs. 25% Fructose, P<0.001): preferred; preference in binary choice test (counts of ants on wicks) (white-footed ants; test 5: 25% Sucrose vs. 15% Sucrose, P<0.05): preferred; preference in binary choice test (counts of ants on wicks) (white-footed ants; test 6: 25% Sucrose vs. 20% Sucrose, P<0.05): preferred; preference in binary choice test (counts of ants on wicks) (white-footed ants; test 7: 40% Sucrose vs. ND1, P=0.002): preferred; preference in binary choice test (counts of ants on wicks) (white-footed ants; test 13: 25% Sucrose vs. Uncle Albert's Super Smart Ant Bait (no active ingredient), P=0.458): no significant preferences; preference in binary choice test (counts of ants on wicks) (white-footed ants; test 15: 25% Sucrose vs. 50% Sucrose, P=0.112): no significant preference; preference in binary choice test (counts of ants on wicks) (white-footed ants; [3]): no significant preferences; preference in binary choice test (counts of ants on wicks) (white-footed ants; [4]): no significant preferences

Q: With `O.O.O.O.O=BOB1OB(OB=O)OB2OB([O-])OB([O-])OB(O1)O2.[Na+].[Na+]` [DOT, disodium octaborate tetrahydrate] as the molecule, how does the “preference in binary choice test (counts of ants on wicks)” value (from here on “preference in binary choice test”) (white-footed ants; tests 24-30: 25% Sucrose vs. 25% Sucrose + 1% to 7% DOT in 1% increments, P=0.218 to 0.916) read?
A: Its value is “no observed preferences”.

Q: What does the source list for `O=[N+]([O-])NC1=NCCN1Cc1ccc(Cl)nc1` [Imidacloprid]?
A: Mean percent Mortality (+/SD) of T. Albipes adults (T. Albipes adults [2]; 1 day exposure): 5% and 4.92 ± 4.02ab %; Mean percent Mortality (+/SD) of T. Albipes adults (T. Albipes adults [2]; 7 days exposure): 29.84 ± 10.63bc %; Mean percent Mortality (+/SD) of T. Albipes adults (T. Albipes adults [2]; 7 days exposure, listed as Irnidacloprid): 30%; Mean percent Mortality (+/SD) of T. Albipes adults (T. Albipes adults [2]; 30 days exposure): 79% and 78.55 ± 4.83a %; Mean percent Mortality (+/SD) of T. Albipes adults (T. Albipes adults [2]; 51 days exposure): 91% and 90.86 ± 5.43a %

Q: `O=C(CO)[C@@H](O)[C@H](O)[C@H](O)CO` [fructose] was tested. Which “preference in binary choice test” value (white-footed ants; test 2: 25% Fructose vs. 25% Maltose, P=0.033) did it give?
A: Its value is “preferred”.

Q: What about the “preference in binary choice test” value (white-footed ants; test 14: 25% Fructose vs. Drax Liquidator (no active ingredient), P=0.580) of the same molecule?
A: The value was “no significant preferences”.

Q: What about the “preference in binary choice test” value (white-footed ants; test 16: 25% Fructose vs. Uncle Albert's Super Smart Ant Bait (no active ingredient), P 0.057) of the same molecule?
A: Its value is “no significant preferences”.

Q: And the “preference in binary choice test” value (white-footed ants; [5])?
A: Its value is “no significant preferences”.

Q: Which results are given for `O=C[C@H](O)[C@@H](O)[C@H](O)[C@H](O)CO` [glucose]?
A: preference in binary choice test (counts of ants on wicks) (white-footed ants; [5]): no significant preferences; preference in binary choice test (counts of ants on wicks) (white-footed ants; [4]): no significant preferences

Q: For `OC[C@H]1O[C@H](O[C@H]2[C@H](O)[C@@H](O)C(O)O[C@@H]2CO)[C@H](O)[C@@H](O)[C@@H]1O` (mixture of isomers) [maltose], which “preference in binary choice test” value (white-footed ants; [3]) is on record?
A: Its value is “no significant preferences”.
